# Laboratory results taken from US8552052B2, “Use of diindolylmethane-related indoles for the treatment and prevention of respiratory syncytial virus associated conditions” (BioResponse, L.L.C., priority 2004, dated 2013).
# “Also recorded” adds a separate entry of the source.
# Tests used:
# RSV, strain A2 = test: Production of infectious RSV from infected A549 cells (plaque titer on HEp-2 monolayers); assay type: cell-based, Respiratory Syncytial Virus
# Protocol: Cell Culture—A549 cells, a tumor cell line with properties of normal airway epithelial cells, were obtained from American Type Culture Collection (ATCC, Manassas, Va.) and incubated at 37° C. in 5% CO2. The cells were cultured in Eagle's minimum essential medium (MEM, Invitrogen) supplemented with 10% fetal bovine serum (HyClone, Logan, Utah) and […] gentamicin. The A549 cells were subcultured by harvesting in 0.12% trypsin no more than 20 times from stock originally designated at pass 70. To minimize effects of exogenous growth factors or cytokines in this system, the supplemented serum concentration was reduced to 0.5% 24 h prior to and during all experiments with RSV infection. […] RSV Virus—RSV, strain A2, was obtained from Advanced Biotechnologies Inc. (Columbia, Md.) and was used directly as supplied for all experiments. The viral preparation was tested to have a TCID50 titer of ˜1×10^9 in Hep-2 cells at 7 days. […] Levels of Production of Infectious RSV—Production of infectious RSV particles in A549 cell culture in the presence of various concentrations of DIM was measured using a method where the cell free media were titered for RSV infectious activity on a monolayer culture of Hep-2 cells. […] The plaques that appeared around 48 h of incubation were visualized by neutral red staining and counted.
# cysteinyl leukotrienes = test: Cysteinyl leukotrienes ELISA in bronchoalveolar lavage fluid (BALF) of RSV infected BALB/c mice; assay type: in vivo; conditions: oral, SC low dose and SC high dose DIM; 6 and 10 days pi; vs RSV-infected, untreated mice; FIG. 7
# Protocol: The Following Experimental BALB/c Groups and Treatment Protocol Using DIM were Studied: • 1. RSV infected positive control group, infected with RSV and injected subcutaneously (SC) once daily with DMSO/Phosphate Buffered Saline (PBS) vehicle. • 2. RSV infected, Low dose Parenteral DIM group (15 mg/kg/day), injected SC once daily with DIM suspension • 3. RSV infected, High dose DIM Group (150 mg/kg/day), injected SC once daily with DIM suspension • 4. RSV infected, orally treated DIM group (250 mg/kg/day from absorption enhanced DIM [Example 6.1]), added to powdered feed • 5. Uninfected negative control group, nasally administered vehicle only, and injected subcutaneously (SC) once daily with DMSO/PBS vehicle
# Mouse treatment, infection and harvest. […]
# To determine viral titer, the lung was homogenized in DMEM supplemented with 2% FBS (2 ml DMEM per 100 mg tissue) in cold. […] Multiple, 4 μm thick sections were stained with haematoxylin & eosin (H&E) and scored for cellular inflammation under light microscopy by two independent researchers. Inflammatory infiltrates were scored by enumerating the layers of inflammatory cells surrounding the vessels and bronchioles. […] A total of about 20 spaces per lung were counted for each animal. […] The concentration of cysteinyl leukotrienes conjugates in the BALF was determined by an ELISA kit following the manufacturer's protocol (R&D Systems, Minneapolis, Minn.). […]
# [1] = system: estrogen-dependent and independent breast cancer cells; conditions: isolated DIM in cell culture; cited from earlier work
# rainbow trout = conditions: cited from earlier work
structure (smiles),measurement,setting,value
"c1ccc2c(Cc3c[nH]c4ccccc34)c[nH]c2c1 [DIM, 3,3′-diindolylmethane]","RSV yield: viral replication and production of extracellular, progeny RSV viral particles","RSV, strain A2; 72 hour treatment of infected A549 cells, DIM 70, 210, 700 nM, LY294002 2 and 5 μM, FIG. 2","reduced production of infectious, progeny RSV virons; also recorded: significantly reduced viral replication and production of extracellular, progeny RSV viral particles"
same,Reduction of RSV replication by DIM compared with LY294002,"RSV, strain A2; infected A549 cells, 72 h, nM DIM vs higher concentrations of LY294002",equal or greater to that caused by LY294002; also recorded: comparable to that seen with higher concentrations of LY294002
same,leukotrienes in broncho-alveolar lung fluid (BALF),cysteinyl leukotrienes,significant reduction in leukotriene levels; also recorded: Reduction in pulmonary leukotriene levels; also recorded: significantly lower levels of lung inflammation associated leukotrienes
same,apoptosis effects,[1],apoptosis promoting effects
same,estrogenic activity,rainbow trout,estrogenic
